Measured values published in PubChem BioAssay AID330 (DTP/NCI, 2004).
“And” between values parts separate entries of the source, which are not always exact repeats. Identical values can stand only once. Inconclusive results and toxic doses are left out. How the source made its calls: active means survival T/C of 150% or more; inactive means T/C below 125% in these data.

System: P388 leukemia ip, CD2F1 mice, survival T/C
Assay: NCI In Vivo Anticancer Drug Screen. Data for tumor model P388 Leukemia (intraperitoneal) in CD2F1 (CDF1) mice
Conditions: endpoint: median survival time, higher = longer survival
Method in brief: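 Mice carrying the transplanted tumor received test compound or vehicle. Survival was recorded in each group, and the value is the treated-group measurement divided by that of the vehicle-treated control group.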

[1] = dose: 50.0 mg/kg/injection, schedule: Q01DX005 (ip), vehicle: Klucel (hydroxypropylcellulose) (HPC)
[2] = dose: 100.0 mg/kg/injection, schedule: Q01DX005 (ip), vehicle: Klucel (hydroxypropylcellulose) (HPC)
[3] = dose: 50.0 mg/kg/injection, schedule: Q04DX003 (ip), vehicle: saline with Tween-80
[4] = dose: 100.0 mg/kg/injection, schedule: Q04DX003 (ip), vehicle: saline with Tween-80
[5] = dose: 50.0 mg/kg/injection, schedule: Q01DX009 (ip), vehicle: Klucel (hydroxypropylcellulose) (HPC)
[6] = dose: 100.0 mg/kg/injection, schedule: Q01DX009 (ip), vehicle: Klucel (hydroxypropylcellulose) (HPC)
[7] = dose: 200.0 mg/kg/injection, schedule: Q01DX009 (ip), vehicle: Klucel (hydroxypropylcellulose) (HPC)
[8] = dose: 50.0 mg/kg/injection, schedule: Q01DX005 (ip), vehicle: saline
[9] = dose: 100.0 mg/kg/injection, schedule: Q01DX005 (ip), vehicle: saline
[10] = dose: 200.0 mg/kg/injection, schedule: Q01DX005 (ip), vehicle: saline
[11] = dose: 25.0 mg/kg/injection, schedule: Q01DX005 (ip), vehicle: saline
[12] = dose: 25.0 mg/kg/injection, schedule: Q01DX009 (ip), vehicle: saline with Tween-80
[13] = dose: 50.0 mg/kg/injection, schedule: Q01DX009 (ip), vehicle: saline with Tween-80

Measured: T/C

COc1ccc2c(=O)c(-c3ccc(OC)c(OC)c3OCc3ccccc3)coc2c1
inactive: dose: 100.0 mg/kg/injection, schedule: Q01DX001 (ip), vehicle: Klucel (hydroxypropylcellulose) (HPC) 92 % of control | dose: 200.0 mg/kg/injection, schedule: Q01DX001 (ip), vehicle: Klucel (hydroxypropylcellulose) (HPC) 96 % of control | dose: 400.0 mg/kg/injection, schedule: Q01DX001 (ip), vehicle: Klucel (hydroxypropylcellulose) (HPC) 94 % of control

N#C/C1=C(\C#N)CCC2(C#N)C3C=CC(O3)C2(C#N)CC1 (stereo not given)
inactive: dose: 3.12 mg/kg/injection, schedule: Q01DX009 (ip), vehicle: Klucel (hydroxypropylcellulose) (HPC) 103 % of control | dose: 6.25 mg/kg/injection, schedule: Q01DX009 (ip), vehicle: Klucel (hydroxypropylcellulose) (HPC) 100 % of control | dose: 12.5 mg/kg/injection, schedule: Q01DX009 (ip), vehicle: Klucel (hydroxypropylcellulose) (HPC) 100 % of control

CN1CN(C)CN(Cc2ccc([N+](=O)[O-])cc2)C1
inactive: dose: 25.0 mg/kg/injection, schedule: Q01DX005 (ip), vehicle: Klucel (hydroxypropylcellulose) (HPC) 93 % of control | [1] 97 % of control | [2] 94 % of control | dose: 200.0 mg/kg/injection, schedule: Q01DX005 (ip), vehicle: Klucel (hydroxypropylcellulose) (HPC) 91 % of control

Nc1nc(=S)c2ncn(C3OC(CO)CC3O)c2[nH]1 (stereo not given)
inactive: dose: 26.4 mg/kg/injection, schedule: Q04DX003 (ip), vehicle: saline 122 % of control | dose: 150.0 mg/kg/injection, schedule: Q04DX003 (ip), vehicle: saline 116 % of control

Nc1nc(N)c(N)c(N)n1
inactive: [3] 98 % of control | [4] 104 % of control | dose: 200.0 mg/kg/injection, schedule: Q04DX003 (ip), vehicle: saline with Tween-80 97 % of control | dose: 400.0 mg/kg/injection, schedule: Q04DX003 (ip), vehicle: saline with Tween-80 96 % of control

CN(C)c1ccc(N=Nc2ccc3cc4ccccc4cc3c2)cc1
inactive: dose: 25.0 mg/kg/injection, schedule: Q04DX003 (ip), vehicle: saline with Tween-80 101 % of control | [3] 105 % of control

CNc1n[nH]c(-c2ccccc2)n1
inactive: [5] 101 % of control | [6] 102 % of control | [7] 102 % of control

CCCNC(c1ccc(N(CC)CC)cc1)C(Cl)(Cl)Cl (stereo not given)
inactive: [8] 103 % of control | [9] 106 % of control | [10] 96 % of control

CC(C)(C)N1CS[C@@H]2CCCC[C@H]21
inactive: [11] 104 % of control | [8] 92 % of control | [9] 111 % of control

CC1(C)CCCC(C)(C2CCC3(C)C2C(O)CC2C4(C)CCC(O)C(C)(C)C4CCC23C)O1 (stereo not given)
inactive: dose: 8.0 mg/kg/injection, schedule: Q01DX009 (ip), vehicle: Klucel (hydroxypropylcellulose) (HPC) 101 % of control | dose: 16.0 mg/kg/injection, schedule: Q01DX009 (ip), vehicle: Klucel (hydroxypropylcellulose) (HPC) 96 % of control | dose: 32.0 mg/kg/injection, schedule: Q01DX009 (ip), vehicle: Klucel (hydroxypropylcellulose) (HPC) 99 % of control | dose: 37.5 mg/kg/injection, schedule: Q01DX009 (ip), vehicle: Klucel (hydroxypropylcellulose) (HPC) 103 % of control | dose: 64.0 mg/kg/injection, schedule: Q01DX009 (ip), vehicle: Klucel (hydroxypropylcellulose) (HPC) 97 % of control | dose: 75.0 mg/kg/injection, schedule: Q01DX009 (ip), vehicle: Klucel (hydroxypropylcellulose) (HPC) 94 % of control | dose: 150.0 mg/kg/injection, schedule: Q01DX009 (ip), vehicle: Klucel (hydroxypropylcellulose) (HPC) 100 % of control | dose: 300.0 mg/kg/injection, schedule: Q01DX009 (ip), vehicle: Klucel (hydroxypropylcellulose) (HPC) 91 % of control

CCCCOC1OCN(C(C)(C)C)CC1(C)C (stereo not given)
inactive: [12] 101 % of control | [13] 100 % of control | dose: 100.0 mg/kg/injection, schedule: Q01DX009 (ip), vehicle: saline with Tween-80 113 % of control | dose: 200.0 mg/kg/injection, schedule: Q01DX009 (ip), vehicle: saline with Tween-80 111 % of control

COc1c(CC(O)C(C)(C)O)c(=O)n(C)c2ccccc12 (stereo not given)
inactive: dose: 4.5 mg/kg/injection, schedule: Q01DX005 (ip), vehicle: Klucel (hydroxypropylcellulose) (HPC) 102 % of control | dose: 9.0 mg/kg/injection, schedule: Q01DX005 (ip), vehicle: Klucel (hydroxypropylcellulose) (HPC) 98 % of control | dose: 18.0 mg/kg/injection, schedule: Q01DX005 (ip), vehicle: Klucel (hydroxypropylcellulose) (HPC) 90 % of control | dose: 36.0 mg/kg/injection, schedule: Q01DX005 (ip), vehicle: Klucel (hydroxypropylcellulose) (HPC) 93 % of control

COC(=O)C1=C(C(=O)OC)C(=Nc2ccccc2)c2ccccc2C1=O
inactive: dose: 100.0 mg/kg/injection, schedule: Q04DX002 (ip), vehicle: Klucel (hydroxypropylcellulose) (HPC) 100 % of control | dose: 200.0 mg/kg/injection, schedule: Q04DX002 (ip), vehicle: Klucel (hydroxypropylcellulose) (HPC) 100 % of control | dose: 400.0 mg/kg/injection, schedule: Q04DX002 (ip), vehicle: Klucel (hydroxypropylcellulose) (HPC) 110 % of control

CS1(C)=Nc2c([N+](=O)[O-])cc([N+](=O)[O-])cc2S(=O)(=O)N=1
inactive: dose: 60.0 mg/kg/injection, schedule: Q01DX005 (ip), vehicle: saline with Tween-80 98 % of control | dose: 120.0 mg/kg/injection, schedule: Q01DX005 (ip), vehicle: saline with Tween-80 94 % of control | dose: 240.0 mg/kg/injection, schedule: Q01DX005 (ip), vehicle: saline with Tween-80 94 % of control

Cc1ccc2[nH]c(C)c(C(=O)c3ccncc3)c2c1
inactive: dose: 100.0 mg/kg/injection, schedule: Q04DX003 (ip), vehicle: Klucel (hydroxypropylcellulose) (HPC) 100 % of control | dose: 200.0 mg/kg/injection, schedule: Q04DX003 (ip), vehicle: Klucel (hydroxypropylcellulose) (HPC) 100 % of control | dose: 400.0 mg/kg/injection, schedule: Q04DX003 (ip), vehicle: Klucel (hydroxypropylcellulose) (HPC) 107 % of control

CCC1CN2CCc3cc(OC)c(OC)cc3C2CC1CC1c2cc(OC)c(OC)cc2CCN1C(=O)C(Cc1c[nH]c2ccccc12)NC(=O)OC(C)(C)C (stereo not given)
inactive: [12] 105 % of control | [13] 115 % of control | dose: 66.0 mg/kg/injection, schedule: Q01DX009 (ip), vehicle: saline with Tween-80 104 % of control | [4] 104 % of control

O=C1c2ccccc2C(=O)N1OCc1csc(-c2ccccc2)n1
inactive: [1] 95 % of control | [2] 101 % of control

N#CC1(OC2OC(CO)C(O)C(O)C2O)C=CC(O)C1 (stereo not given)
inactive: [11] 91 % of control | [8] 94 % of control | [9] 106 % of control

C/C(=N\NC(=S)N1CCCC1)c1nccs1
inactive: dose: 12.5 mg/kg/injection, schedule: Q01DX005 (ip), vehicle: saline with Tween-80 109 % of control | dose: 25.0 mg/kg/injection, schedule: Q01DX005 (ip), vehicle: saline with Tween-80 104 % of control | dose: 50.0 mg/kg/injection, schedule: Q01DX005 (ip), vehicle: saline with Tween-80 108 % of control and 114 % of control

Cc1ccc(C2(c3ccccc3)OC(=O)c3ccccc32)cc1 (stereo not given)
inactive: dose: 200.0 mg/kg/injection, schedule: Q01DX009 (ip), vehicle: saline sonified 95 % of control

COc1ccc(/C=C/C(=O)CCC(=O)O)cc1OC
inactive: [5] 100 % of control and 109 % of control | dose: 50.0 mg/kg/injection, schedule: Q01DX009 (ip), vehicle: saline 114 % of control | [6] 108 % of control and 109 % of control | [7] 106 % of control and 110 % of control

C=C(CC(O)c1ccccc1)C(=O)Nc1ccccc1OC (stereo not given)
inactive: [8] 98 % of control | [9] 103 % of control | [10] 100 % of control

Cc1cc2nc3ccccc3[nH]c2c2ccc(=O)cc12
inactive: dose: 100.0 mg/kg/injection, schedule: Q04DX002 (ip), vehicle: saline with Tween-80 99 % of control | dose: 200.0 mg/kg/injection, schedule: Q04DX002 (ip), vehicle: saline with Tween-80 98 % of control | dose: 400.0 mg/kg/injection, schedule: Q04DX002 (ip), vehicle: saline with Tween-80 94 % of control

COc1cc[n+](CCc2c[nH]c3ccccc23)cc1
inactive: dose: 12.5 mg/kg/injection, schedule: Q01DX009 (ip), vehicle: saline with Tween-80 109 % of control | [12] 104 % of control | [13] 113 % of control

CSCC(NP1(=O)SC(NN=C(C)C)=NC1(C)C)C(=O)O (stereo not given)
inactive: dose: 60.0 mg/kg/injection, schedule: Q01DX005 (ip), vehicle: saline 106 % of control | dose: 120.0 mg/kg/injection, schedule: Q01DX005 (ip), vehicle: saline 107 % of control
